Measurements taken from US5714516A, “Anti-viral agents” (priority 1992, dated 1998).
≈ marks a conversion by molar mass, not a printed value. Entries after “also recorded” stand apart in the source; their conditions may differ. Read-outs that look alike come from different tables or passages of the source. Blank lines part the entries; values can stand above or below the compound they belong to.

Legend:
[1] = Crystallisation from aqueous solution / medium; type: physicochemical
[2] = system: VZV viral antigen synthesis; assay: Synthesis of VZV viral antigen assayed by immunoblotting in infected MRC5 cells; type: cell-based, Varicella zoster virus (VZV)
Description: In order to characterise the nature of the antiviral effect, the effect of 2-hydroxymyristic acid on the synthesis of viral antigen was assayed by immunoblotting.

[3] = system: Varicella zoster virus (VZV); assay: VZV plaque reduction assay in Mewo cells; type: cell-based, varicella zoster virus (VZV) strain H-551; settings: for Inhibition of VZV (in words): Example 1, 2 to 200 μM
Description: (§1) The assay system used was the Mewo cell plaque reduction assay of VZV, C. Grose and P. A. Brunell, Infection & Immunity, 19, 199-203 (1978). […] Compounds were tested at levels from 2 to 200 μM.
(§2) The VZV plaque assay of Example 1 was repeated using a variety of myristic acid analogues. Briefly, sub-confluent Mewo monolayers (Grose and Brunell, 1978, supra) in 24 well plates were infected with approximately 40 P.F.U. (Plaque Forming Units) of cell-free varicella zoster virus (VZV) strain H-551. After an adsorption period of 2 hours the cells were overlaid with 750 μl of MEM (Minimum Essential Medium (Eagle)) supplemented with 2% fetal calf serum and 1% non-essential amino acids. The anti-viral compounds to be tested were solubilized in ethanol, added to final concentrations of 0, 2, 20 or 200 μM and the wells then overlaid with a further 750 μl of MEM supplemented with 2% fetal calf serum, 1% non-essential amino acids and 0.3% agarose. Mock infected wells were also included as controls to test for cytotoxicity. All plates were incubated at 32° C. with 5% CO2. Eight days post infection the monolayers were fixed in 4% formaldehyde and stained with crystal violet.
(§3) The effect of 2-hydroxymyristic acid (2-HM) on VZV or HIV when solubilized in a variety of solvents was observed using the methods approved for the Medical Research Council AIDS Directed Programme as described in H. C. Holmes et al., Antiviral Chem. & Chemother. (1991), 2(5), 287-293, using concentrations of 2 HM from 0.08to 1000 μM. Additionally, back titration assays of HIV were carried out by adding supernatants from treated infected cells to uninfected C8166 cells at increasing dilutions. Assays were scored by recording the presence or absence of syncytium formation.
(§4) Preparation and assay of VZV was carried out as described previously in Examples 1 and 3.
(§5) Stocks of 2-HM were prepared from crystalline solid by dissolving in ethanol or in dimethyl sulphoxide (DMSO) to a concentration of 20 mM to 100 mM, and were stored at -20° C. prior to addition to culture media.

[4] = in vitro; parameters: Toxicity in Mewo Cells: key to the marks not given beside the values; settings: human, mewo cells
Description: as §1, §2, §4

[5] = system: Mewo cells; assay: in vitro; parameters: Toxicity in Mewo Cells: key to the marks not given beside the values
Description: as §1, §2, §4

[6] = system: myristoylation; assay: Myristoylation in the infected cell by incorporation of radiolabelled precursors; type: cell-based; settings: 0.1 to 10×IC50
Description: (§6) Cytotoxicity was assessed by the incorporation of radiolabelled precursors to assay protein synthesis and myristoylation in the infected cell.

[7] = Cytotoxicity to C8166 cells in HIV assays; type: cell-based; settings: human, c8166 cells, Table 2
Description: as §3
(§7) The HIV assays were performed at three of the MRC approved laboratories (Mill Hill, Cambridge and St. Bartholomew's Hospital).
as §5, with “media. Concentrations of 2-HM greater than 80 to 100 μM are imprecise, since 2-HM crystallises from aqueous solutions at such levels.” for “media.”

[8] = system: C8166 cells; assay: Cytotoxicity to C8166 cells in HIV assays; type: cell-based; settings: St. Bartholomew's and Mill Hill; only above levels at which 2-HM would crystallise from aqueous solution
Description: as §3, §7
as §5, with “media. Concentrations of 2-HM greater than 80 to 100 μM are imprecise, since 2-HM crystallises from aqueous solutions at such levels.” for “media.”

[9] = system: HIV; assay: HIV antigen assay; type: cell-based; settings: for IC50: Human immunodeficiency virus 1, Table 2
Description: as §3, §7
as §5, with “media. Concentrations of 2-HM greater than 80 to 100 μM are imprecise, since 2-HM crystallises from aqueous solutions at such levels.” for “media.”

[10] = system: MRC5 monolayer; assay: Total protein synthesis by incorporation of 35S methionine in infected MRC5 cells (cytotoxicity); type: cell-based
Description: as §6

[11] = system: HIV; assay: HIV virus titration (back titration, syncytium formation in C8166 cells); type: cell-based; settings: Human immunodeficiency virus 1, C8166; Table 2; Ethanol; Mill Hill
Description: as §3, §7
as §5, with “media. Concentrations of 2-HM greater than 80 to 100 μM are imprecise, since 2-HM crystallises from aqueous solutions at such levels.” for “media.”

[12] = system: HIV; settings: Saermark et al.; Bryant et al.; cited from earlier work
[13] = Human alphaherpesvirus 3, MeWo, 192 h, Table 1, Example 3, solubilized in ethanol, 0, 2, 20 or 200 μM, eight days post infection, Mewo cells, read-out: IC50 Against VZV
[14] = Table 1, Example 3, solubilized in ethanol, 0, 2, 20 or 200 μM, eight days post infection, Mewo cells, read-out: IC50 Against VZV
[15] = Table 1, Example 3, solubilized in ethanol, 0, 2, 20 or 200 μM, eight days post infection, Mewo cells
[16] = Human alphaherpesvirus 3, MeWo, 192 h, read-out: IC50 Against VZV (μM)

SMILES: CCCCCCCCCCCCC(O)C(=O)O (racemic) [2-hydroxymyristic acid]
solubility ([1]; aqueous solution, aqueous solutions, read-out: Concentration above which 2-HM crystallises from aqueous solutions): 80 to 100 µM (≈ 19.5 to 24.4 µg/mL)
Crystalline deposits ([1]; at the highest concentration, VZV plaque assay): crystalline deposits were observed
Effect on syncytium formation ([2]; MRC5 monolayers, suggested by results): inhibit syncytium formation
Reduction in viral antigen synthesis ([2]; inoculum one infected to four uninfected cells, three days post-infection, 80 μM (10×IC50)): no reduction in antigen synthesis was apparent
Inhibition of viral antigen synthesis at reduced inoculum ([2]; reduced initial inoculum, harvest time increased, inversely proportional to inoculum): inhibition was apparent
Inhibition of VZV (in words) [3]: showed inhibition at 20 and 200 μM
IC50 ([3]; Human alphaherpesvirus 3, MeWo, 8 μM lower end to 33 μM upper end, read-out: Range of IC50 against VZV over Examples): 8 to 33 µM
IC50 [3, 13]: 21.5 µM
IC50 ([3]; Human alphaherpesvirus 3, MeWo, Table 2, DMSO, St. Bartholomew's, read-out: IC50, VZV plaque reduction): > 200 µM
IC50 ([3]; Human alphaherpesvirus 3, MeWo, Table 2, Ethanol, St. Bartholomew's, read-out: IC50, VZV plaque reduction): 33.1 µM
IC50 ([3]; Human alphaherpesvirus 3, MeWo, read-out: 50% inhibitory concentration (IC50), VZV plaque reduction): 8 µM
Anti-viral effect against VZV (in words) ([3]; solubilised in DMSO): no significant anti-viral effect
Inhibition of VZV replication (in words) ([3]; solubilised in ethanol, St. Bartholomew's Hospital): inhibits the replication
CC50 [4]: > 200 µM
Cytotoxicity in the assay (in words) [5]: failed to be cytotoxic
CC50 ([5]; human, mewo cells): > 200 µM
Inhibition of myristoylation [6]: non-specific inhibition of myristoylation
CC50 ([7]; DMSO, St. Bartholomew's, read-out: TC50, HIV antigen assay): > 400 µM
CC50 ([7]; Ethanol, Mill Hill, antigen assay, read-out: TC50, HIV antigen assay): 192 µM
CC50 ([7]; Ethanol, Mill Hill, virus titration, read-out: TC50, HIV virus titration): 192 µM
CC50 ([7]; Ethanol, St. Bartholomew's, read-out: TC50, HIV antigen assay): 168 µM
Toxicity to C8166 cells (in words) [8]: toxicity of 2-HM to C8166 cells was detected
IC50 ([9]; DMSO, St. Bartholomew's): 220 µM
IC50 ([9]; Ethanol, Mill Hill): 2 µM
IC50 ([9]; Ethanol, St. Bartholomew's): 31.4 µM
Anti-viral effect against HIV on re-test (in words) ([9]; ethanol as the solvent, St. Bartholomew's Hospital): a clear anti-viral effect was apparent
Anti-viral effect against HIV (in words) ([9]; solubilised in DMSO, St. Bartholomew's Hospital): lack of any significant anti-viral effect
Inhibition of HIV replication (in words) ([9]; solubilised in ethanol, Mill Hill): inhibits the replication
Total protein synthesis (35S methionine incorporation) ([10]; 1:4 inoculum, 0.1 to 10×IC50): unaffected at any concentration tested
Cellular toxicity (in words) ([10]; up to ten times greater than the IC50): not toxic to cells; also recorded: without producing significant cellular toxicity
IC50 [11]: 3.9 µM

SMILES: CCCCCCCCCCCCC(O)C(=O)O (single isomer, unassigned) [2-hydroxytetradecanoic acid (+)]
IC50 [3, 14]: 48.7 µM
Cytotoxicity in the assay (in words) [5]: failed to be cytotoxic

SMILES: CCCCCCCCCCCCC(O)C(=O)O (single isomer, unassigned) [2-hydroxytetradecanoic acid (-)]
IC50 [3, 14]: 11.5 µM
Cytotoxicity in the assay (in words) [5]: failed to be cytotoxic

SMILES: CCCCCCCCCC(OCC)C(=O)O (stereo not drawn) [2-(ethyloxy)undecanoic acid, reference compound]
IC50 [3, 13]: 14.4 µM

SMILES: CCCCCCCCCCCCC(N=[N+]=[N-])C(=O)O (stereo not drawn) [2-azidotetradecanoic acid, reference compound]
IC50 Against VZV (μM) [3, 15]: unobtainable

SMILES: CCCCCCCCCCCCCCC(Br)C(=O)O (stereo not drawn) [2-bromopalmitic acid]
IC50 [3, 16]: 0.89 µM
Toxic at 200 μM (in words) ([5]; Example 3, at 200 μM): toxic at 200 μM
Toxicity in Mewo Cells ([5]; Table 1, Example 3, 0, 2, 20 or 200 μM, eight days post infection): +++

SMILES: CCCCCCCCCCCCC(Br)C(=O)O (stereo not drawn) [2-bromotetradecanoic acid, reference compound]
IC50 [3, 13]: 14.8 µM

SMILES: COCCCCCCCCCCCC(=O)O [12-(methyloxy)dodecanoic acid, reference compound]
IC50 [3, 16]: 17.3 µM

SMILES: COCCCCCCCCCCCC(=O)O [13-oxamyristic acid]
Inhibition of HIV release from infected cells (in words) [12]: effective

Further lines, with some results ahead:

IC50 [3, 13]: 14.2 µM
SMILES: CCCCCCCCCCCCCCC(O)C(=O)O (stereo not drawn) [2-hydroxypalmitic acid]

IC50 [3, 13]: 164 µM
SMILES: CCCCNCCCCCCCCC(=O)O [9-(butylamino)nonanoic acid, reference compound]

IC50 Against VZV (μM) [3, 15]: unobtainable
SMILES: CCNCCCCCCCCCCC(=O)O [11-(ethylamino)undecanoic acid, reference compound]

IC50 Against VZV (μM) [3, 15]: unobtainable
SMILES: CCSCCCCCCCCCCC(=O)O [11-(ethylthio)undecanoic acid, reference compound]

IC50 Against VZV (μM) [3, 15]: unobtainable
SMILES: CCCCCCCCCCCCCC(=O)NCC(OCC)OCC [N-myristoylglycinaldiethylacetal (GoA), N-myristoylglycinaldiethylacetal, reference compound]
Inhibition of VZV (in words) [3]: did not cause 50% inhibition of virus at any concentration tested

IC50 [3, 13]: 4.5 µM
SMILES: O=C(O)C1CO1 (stereo not drawn) [glycidic acid, reference compound]

IC50 [3, 13]: 56.6 µM
SMILES: CCCCCCCCCCCCCC(=O)NC [myristoylmethylamide, reference compound]
